Experimental data taken from patent US20070155659A1, “Use of somatostatin or one of its analogues for preparing a medicament intended to regulate the ovarian follicular reserve in non-menopausal women” (Societe de Conseils de Recherches et D'Application, priority 2003, published 2007).
Where a SMILES comes first, the peptide text is derived from it. [ ]: non-standard residue; d: D form. Tic = O=C(O)[C@@H]1Cc2ccccc2CN1; Abu = CC[C@H](N)C(=O)O

Columns and labels:
[1] = tested on: primordial follicles of ovarian cortex; assay: Culture of ewe ovarian cortex fragments for 10 days: start of growth of primordial follicles; assay type: cell-based; details: for start of growth of the primordial follicles: 10 days culture, vs control fragments; for number of primary follicles / number of primordial follicles over time: D0-D10
Experimental: Ovaries of adult ewes are collected immediately after slaughter. The ovaries are placed in an organ transport medium without serum (X-vivo, Bio Whittaker, Walkersville, Md., USA) at 10° C. and transported to the laboratory. Approximately 1 h after removal, the cortex is isolated from the medulla then fractionated into slices of 2 mm thickness (1 cm^2, average weight of 212 mg) after rinsing in new X-vivo. The cortex fragments are cultured in an oven under 5% oxygen for 10 days in well plates in the presence of DMEM. The medium is changed every 2 days.
The procedure used is the same as for Example 1, except that the somatostatin is replaced with one of its agonist analogues, namely the synthetic peptide of formula c[Tic-Tyr-DTrp-Lys-Abu-Phe] (hereafter AG1 peptide).
The procedure used is the same as for Example 1, except that the somatostatin is replaced by one of its antagonist analogues, namely the synthetic peptide of formula Cpa-c(DCys-3-Pal-DTrp-NMeLys-Thr-Cys)-2-Nal-NH2 (hereafter ANT1 peptide).

[2] = tested on: pituitary cells producing LH and FSH; preovulatory follicles; details: rats, in vivo administration; cited from earlier work
granulosa cells [3] = details: in vitro, model of granulosa cells; cited from earlier work
granulosa cells [4] = details: pig granulosa cells; cited from earlier work
preovulatory oocyte = details: pigs; cited from earlier work
[5] = tested on: granulosa cells from preovulatory follicles; details: women, in vitro; cited from earlier work
[6] = women, in vivo; cited from earlier work
[7] = co-administered with FSH; infertile patients with polycystic ovary syndrome; cited from earlier work
[8] = Envisaged case: patient with polycystic ovary syndrome treated with lanreotide acetate; assay type: in vivo, women; details: 120 mg/month

For `CC[C@@H]1NC(=O)[C@H](CCCCN)NC(=O)[C@@H](Cc2c[nH]c3ccccc23)NC(=O)[C@H](Cc2ccc(O)cc2)NC(=O)[C@@H]2Cc3ccccc3CN2C(=O)[C@H](Cc2ccccc2)NC1=O` [AG1 peptide, c[Tic-Tyr-DTrp-Lys-Abu-Phe]] (cyclo([Tic]Y[dW]K[Abu]F)), the “start of growth of the primordial follicles” value ([1]; AG1 peptide 10^−9 M, FIG. 4) was “very significantly inhibits”, the “number of primary follicles” value ([1]; AG1 peptide 10^−9 M, FIG. 4) was “absence of increase” and the “number of primordial follicles over time” value ([1]; AG1 peptide 10^−9 M, FIG. 4) was “maintenance over time”.
In the case of `C[C@H](N)C(=O)NCC(=O)N[C@H]1CSSC[C@@H](C(=O)O)NC(=O)[C@H](CO)NC(=O)[C@H]([C@@H](C)O)NC(=O)[C@H](Cc2ccccc2)NC(=O)[C@H]([C@@H](C)O)NC(=O)[C@H](CCCCN)NC(=O)[C@H](Cc2c[nH]c3ccccc23)NC(=O)[C@H](Cc2ccccc2)NC(=O)[C@H](Cc2ccccc2)NC(=O)[C@H](CC(N)=O)NC(=O)[C@H](CCCCN)NC1=O` [SST14], the “start of growth of the primordial follicles” value ([1]; SST14 10^−9 M to 10^−6 M, FIGS. 1 and 2) is reported as “very significantly inhibits”, the “number of primordial follicles over time” value ([1]; SST14 10^−9 M to 10^−6 M, FIG. 1) is reported as “maintenance over time” and the “number of primary follicles” value ([1]; SST14 10^−9 M to 10^−6 M, FIG. 2) is reported as “absence of increase”.
In the case of `C[C@H](N)C(=O)NCC(=O)N[C@H]1CSSC[C@@H](C(=O)O)NC(=O)[C@H](CO)NC(=O)[C@H]([C@@H](C)O)NC(=O)[C@H](Cc2ccccc2)NC(=O)[C@H]([C@@H](C)O)NC(=O)[C@H](CCCCN)NC(=O)[C@H](Cc2c[nH]c3ccccc23)NC(=O)[C@H](Cc2ccccc2)NC(=O)[C@H](Cc2ccccc2)NC(=O)[C@H](CC(N)=O)NC(=O)[C@H](CCCCN)NC1=O` [SST], the “number of pituitary cells producing LH and FSH and number of preovulatory follicles in the ovary” value [2] is given as “seems to reduce”, the “aromatase and production of progesterone, stimulated by FSH” value (granulosa cells [3]) is given as “inhibits” and the “increase in cAMP induced by LH and forskolin” value (granulosa cells [4]) is given as “inhibits”. The “nuclear maturation of the preovulatory oocyte” value (preovulatory oocyte) was “seems to inhibit”, the “synthesis of IGF-BP1 and of progesterone” value [5] was “inhibiting” and the “secretion of LH by the pituitary, production of androgens and IGF-1 serum levels” value [6] was “capable of reducing”. For the same compound, the “serum levels of IGF-BP3” value [6] was “increases” and the “follicle growth induced by the administration of FSH” value [7] was “not however accompanied by a significant impact”.
In the case of `CC(C)[C@@H]1NC(=O)[C@H](CCCCN)NC(=O)[C@@H](Cc2c[nH]c3ccccc23)NC(=O)[C@H](Cc2ccc(O)cc2)NC(=O)[C@@H](NC(=O)[C@H](N)Cc2ccc3ccccc3c2)CSSC[C@@H](C(=O)N[C@H](C(N)=O)[C@@H](C)O)NC1=O` [lanreotide acetate], the “ovarian volume and number of antral follicles (ultrasound)” value ([8]; 4th month of treatment) is reported as “reduction”, the pregnancy test ([8]; 8th month of treatment) is reported as “positive” and the periods ([8]; after 3 months of treatment) is reported as “spontaneous periods”.
